# According to PubChem BioAssay AID2060600 (Molecular Pharmacology Branch, DTP, NCI, 2025):
# System: 996289-038-R-J1-PDC complex spheroid viability
# Assay: Anticancer human tumor 996289-038-R-J1-PDC patient-derived colon adenocarcinoma cell line growth inhibition [CLK]
# Conditions: for IC50: curve of first compound; for viability, T/C: stronger effect = lower value
# Method in brief: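 Multi-cell-type spheroids combined patient-derived tumor cells with HUVEC endothelial cells and human mesenchymal stem cells. Paired agents were dosed in half-log steps down from about clinical Cmax, or from 10 microM where Cmax was unknown.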
# [1] = second compound 0.0316 µM, first compound 0.0316 µM
# [2] = second compound 0.0316 µM, first compound 0.1 µM
# [3] = second compound 0.0316 µM, first compound 0.316 µM
# [4] = second compound 0.0316 µM, first compound 1 µM
# [5] = second compound 0.1 µM, first compound 0.0316 µM
# [6] = second compound 0.1 µM, first compound 0.1 µM
# [7] = second compound 0.1 µM, first compound 0.316 µM
# [8] = second compound 0.1 µM, first compound 1 µM
# [9] = second compound 0.316 µM, first compound 0.0316 µM
# [10] = second compound 0.316 µM, first compound 0.1 µM
# [11] = second compound 0.316 µM, first compound 0.316 µM
# [12] = second compound 0.316 µM, first compound 1 µM
# [13] = second compound 1 µM, first compound 0.0316 µM
# [14] = second compound 1 µM, first compound 0.1 µM
# [15] = second compound 1 µM, first compound 0.316 µM
# [16] = second compound 1 µM, first compound 1 µM
# [17] = second compound 3.16 µM, first compound 0.0316 µM
# [18] = second compound 3.16 µM, first compound 0.1 µM
# [19] = second compound 3.16 µM, first compound 0.316 µM
# [20] = second compound 3.16 µM, first compound 1 µM
# [21] = second compound 10 µM, first compound 0.0316 µM
# [22] = second compound 10 µM, first compound 0.1 µM
# [23] = second compound 10 µM, first compound 0.316 µM
# [24] = second compound 10 µM, first compound 1 µM
# 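Also: spheroids exposed to the agents for 7 days before readout.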
structure (smiles),measurement,setting,value
O=C(c1cc(Cc2n[nH]c(=O)c3ccccc23)ccc1F)N1CCN(C(=O)C2CC2)CC1 + CN1CCN(c2cc(C(=O)Nc3cc4cc(-c5cnn(C)c5)ccc4cn3)ccn2)CC1,IC50,second compound 0.0316 µM,> 10000 nM
same,IC50,second compound 0.1 µM,> 10000 nM
same,IC50,second compound 0.316 µM,> 10000 nM
same,IC50,second compound 1 µM,< 31.6 nM
same,IC50,second compound 3.16 µM,< 31.6 nM
same,IC50,second compound 10 µM,< 31.6 nM
same,"viability, T/C",[1],92.9%
same,"viability, T/C",[2],109%
same,"viability, T/C",[3],91.9%
same,"viability, T/C",[4],110%
same,"viability, T/C","second compound 0.0316 µM, first compound 3.16 µM",104%
same,"viability, T/C","second compound 0.0316 µM, first compound 10 µM",100%
same,"viability, T/C",[5],84.9%
same,"viability, T/C",[6],97.3%
same,"viability, T/C",[7],84.6%
same,"viability, T/C",[8],89.2%
same,"viability, T/C","second compound 0.1 µM, first compound 3.16 µM",92.7%
same,"viability, T/C","second compound 0.1 µM, first compound 10 µM",87.8%
same,"viability, T/C",[9],57.9%
same,"viability, T/C",[10],65.9%
same,"viability, T/C",[11],73.4%
same,"viability, T/C",[12],58.4%
same,"viability, T/C","second compound 0.316 µM, first compound 3.16 µM",67.9%
same,"viability, T/C","second compound 0.316 µM, first compound 10 µM",60.4%
same,"viability, T/C",[13],3.61%
same,"viability, T/C",[14],4.51%
same,"viability, T/C",[15],5.54%
same,"viability, T/C",[16],3.94%
same,"viability, T/C","second compound 1 µM, first compound 3.16 µM",3.05%
same,"viability, T/C","second compound 1 µM, first compound 10 µM",5.36%
same,"viability, T/C",[17],1.23%
same,"viability, T/C",[18],1.19%
same,"viability, T/C",[19],2.64%
same,"viability, T/C",[20],1%
same,"viability, T/C","second compound 3.16 µM, first compound 3.16 µM",0.92%
same,"viability, T/C","second compound 3.16 µM, first compound 10 µM",1.35%
same,"viability, T/C",[21],0.69%
same,"viability, T/C",[22],1.28%
same,"viability, T/C",[23],0.88%
same,"viability, T/C",[24],2.07%
same,"viability, T/C","second compound 10 µM, first compound 3.16 µM",0.54%
same,"viability, T/C","second compound 10 µM, first compound 10 µM",2.19%
CCc1c2c(nc3ccc(O)cc13)-c1cc3c(c(=O)n1C2)COC(=O)[C@]3(O)CC + CN1CCN(c2cc(C(=O)Nc3cc4cc(-c5cnn(C)c5)ccc4cn3)ccn2)CC1,IC50,second compound 0.0316 µM,126 nM
same,IC50,second compound 0.1 µM,58.6 nM
same,IC50,second compound 0.316 µM,16.6 nM
same,IC50,second compound 1 µM,< 3.16 nM
same,IC50,second compound 3.16 µM,< 3.16 nM
same,IC50,second compound 10 µM,< 3.16 nM
same,"viability, T/C","second compound 0.0316 µM, first compound 0.00316 µM",89.7%
same,"viability, T/C","second compound 0.0316 µM, first compound 0.01 µM",79.2%
same,"viability, T/C",[1],57.2%
same,"viability, T/C",[2],56.6%
same,"viability, T/C",[3],43%
same,"viability, T/C",[4],26.9%
same,"viability, T/C","second compound 0.1 µM, first compound 0.00316 µM",91%
same,"viability, T/C","second compound 0.1 µM, first compound 0.01 µM",70.7%
same,"viability, T/C",[5],55.6%
same,"viability, T/C",[6],44.8%
same,"viability, T/C",[7],33.8%
same,"viability, T/C",[8],19.5%
same,"viability, T/C","second compound 0.316 µM, first compound 0.00316 µM",57.9%
same,"viability, T/C","second compound 0.316 µM, first compound 0.01 µM",51.2%
same,"viability, T/C",[9],46.2%
same,"viability, T/C",[10],35%
same,"viability, T/C",[11],17.7%
same,"viability, T/C",[12],6.98%
same,"viability, T/C","second compound 1 µM, first compound 0.00316 µM",6.14%
same,"viability, T/C","second compound 1 µM, first compound 0.01 µM",5.27%
same,"viability, T/C",[13],2.85%
same,"viability, T/C",[14],1.7%
same,"viability, T/C",[15],3.66%
same,"viability, T/C",[16],5.38%
same,"viability, T/C","second compound 3.16 µM, first compound 0.00316 µM",1.13%
same,"viability, T/C","second compound 3.16 µM, first compound 0.01 µM",0.73%
same,"viability, T/C",[17],1.24%
same,"viability, T/C",[18],1.43%
same,"viability, T/C",[19],3.98%
same,"viability, T/C",[20],8.54%
same,"viability, T/C","second compound 10 µM, first compound 0.00316 µM",1.3%
same,"viability, T/C","second compound 10 µM, first compound 0.01 µM",2.51%
same,"viability, T/C",[21],0.56%
same,"viability, T/C",[22],0.63%
same,"viability, T/C",[23],0.8%
same,"viability, T/C",[24],3.96%
